The term TGI denotes the concentration giving total growth inhibition.

Common to all, as to test: DTP human tumour cell line panel, 48 h
Assay [1] concerns A549 NSCLC.
Assay [2] relates to HOP-92 NSCLC.
The subject of assay [3] is K-562 leukemia.
Assay [4] has as its system LOX IMVI melanoma.
In assay [5] the test system is MALME-3M melanoma.
Assay [6] concerns MCF7 breast.
Assay [7] concerns MDA-MB-231 breast.
The subject of assay [8] is MDA-MB-435.
Assay [9] relates to OVCAR-8 ovarian.
The subject of assay [10] is SNB-75 CNS.
Assay [11] relates to SK-OV-3 ovarian.

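Following 48 hours of exposure in 96-well plates, responses at five concentrations were used to interpolate endpoints linearly. Definition used: TGI = concentration required for complete inhibition of growth.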

Take `COc1nn(Cc2ccccc2F)c2ccc([N+](=O)[O-])cc12`: the TGI in [1], in [2], in [3], in assay [4], in [5] and in [6] was above 100 µM throughout. The TGI in assay [7] is above 100 µM; in [8] it was above 23.6 µM; in assay [9], above 100 µM; in [10] it was above 100 µM.

On to `N=c1c2c3n(c4c(=O)n(-c5ccccc5)c(=S)n(c(=O)n1-c1ccccc1)c24)CCCCC3`, for which the TGI in [1], in [2], in assay [4], in assay [5], in [6] and in assay [7] was above 100 µM in each case. Moreover, the TGI in assay [8], in assay [9], in assay [11] and in assay [10] was above 100 µM in each case.

`COc1ccc(/C=C2\CN(C)CC3=C2OC(N)=C(C#N)C3c2ccc(OC)cc2)cc1` (stereo not drawn): the TGI was above 100 µM in assay [1]; 59.3 µM in assay [2]; above 100 µM in [3]; above 100 µM in assay [4]; 58.1 µM in [5]; above 100 µM in assay [6]. Also, the TGI was above 100 µM in [7], above 71.2 µM in assay [8], above 100 µM in assay [9] and above 100 µM in [11].

Consider `C=C(C)CCC1CCCCC(CN(C)C)C1=O` (stereo not drawn), for which the concentration for total growth inhibition (TGI) in assay [1], in [2], in assay [3], in [4], in assay [6] and in assay [7] was above 100 µM in each case. Also, the TGI in assay [8], in assay [9], in assay [11] and in assay [10] was above 100 µM in each case.

Take `CC(C)CCCC(C)[C@H]1CC[C@H]2[C@@H]3CC[C@H]4C[C@@H](CCC=C(c5cc(Cl)c(O)c(C(=O)OC(C)(C)C)c5)c5cc(Cl)c(O)c(C(=O)OC(C)(C)C)c5)CC[C@]4(C)[C@H]3CC[C@]12C` (stereo partly drawn): the TGI in assay [1], in [3], in assay [4], in assay [6], in assay [7] and in assay [8] was above 50 µM in each case. The TGI in assay [11] and in assay [10] was above 50 µM in each case.

In the case of `NC(=O)c1n[nH]n(-c2ccccc2)c1=O`, the TGI in [1], in [3], in [4], in [5], in assay [6] and in assay [7] was above 100 µM in each case. Besides, the TGI in assay [8], in [9], in [11] and in assay [10] was above 100 µM in each case.

Take `OC(c1cccs1)c1cc2ccccc2s1` (stereo not drawn): the TGI in [1], in assay [2], in assay [3], in assay [4], in [6] and in [7] was above 10 µM each time. For the same compound, the TGI in assay [8], in assay [9], in assay [11] and in assay [10] was above 10 µM in each case.

With `CCN1/C(=C/c2ccc3ccccc3[n+]2CC)C=Cc2ccccc21`, the concentration for total growth inhibition (TGI) was 17.1 µM in assay [1]; 6.93 µM in [2]; above 100 µM in [3]; 4.86 µM in [4]; 6.89 µM in assay [5]; 13.1 µM in assay [6]. In addition, the TGI in [7] came to 8.12 µM; in assay [8] it was 1.67 µM; in [9], 12.4 µM; in assay [10] it was 2.27 µM.

For `OCCCSc1ccccc1SCCCO`, the TGI in [1], in [2], in [3], in assay [4], in assay [6] and in [7] was above 100 µM in each case. Besides, the concentration for total growth inhibition (TGI) in assay [8], in assay [9], in assay [11] and in assay [10] was above 100 µM each time.

Consider `COC(=O)C(NC(=O)CNC(=O)CSc1nnc(COc2ccc(Cl)cc2)n1-c1ccccc1)C(C)C` (stereo not drawn), for which the TGI was above 100 µM in assay [1]; 51.5 µM in assay [2]; above 100 µM in assay [3]; 50 µM in assay [4]; 35.5 µM in assay [5]; 30.4 µM in assay [6]. Also, the TGI in assay [7] turned out to be 36.5 µM; in assay [8], 47.4 µM; in assay [9], 40.8 µM; in assay [10] it was 37.5 µM.

As to `N#CC1C(=O)Nc2sc(C(=O)c3ccc(Br)cc3)c(N)c2C12CCCCC2` (stereo not drawn), the concentration for total growth inhibition (TGI) in [1] is above 100 µM; in [3], above 100 µM; in assay [4] it was above 100 µM; in [5], 84.2 µM; in [6] it was above 100 µM; in [7], 67.7 µM. Besides, the TGI in [8] is 58.9 µM; in [9], above 100 µM; in assay [11] it was above 100 µM; in [10] it was above 100 µM.

`CO/N=C1\CCC2(O)C3Cc4ccc(O)c5c4C2(CCN3CC2CC2)[C@H]1O5` (stereo partly drawn): the TGI in assay [1], in assay [2], in assay [3], in assay [4], in [5] and in assay [6] was above 100 µM each time. The TGI in [7], in [8], in assay [9] and in [11] was above 100 µM in each case.

Turning to `CC(=O)Oc1ccn2nc(C)c(Br)c2c1Br`, the TGI in assay [1] is 57.6 µM; in assay [2], 36.7 µM; in [3] it was 50.1 µM; in [4], 36 µM; in assay [5], 40.6 µM; in [6], 36.1 µM. Moreover, the TGI in [7] is 54.3 µM; in assay [8], 35.2 µM; in assay [9], above 83.7 µM; in assay [10], above 56.2 µM.
